Values after ≈ are worked out from the molar mass of the structure shown.
Assays:
[1] = system: Enterococcus faecalis; assay: Antimicrobial activity against vancomycin-resistant Enterococcus faecalis after 20 hrs by broth microdilution method; assay type: functional
[2] = system: Enterococcus faecalis; assay: Antimicrobial activity against Enterococcus faecalis after 20 hrs by broth microdilution method; assay type: functional
[3] = Solubility at 1 mM; assay type: physicochemical; conditions: 1000 µM

SMILES | MIC [1] [µg/mL] | MIC [2] [µg/mL] | solubility [3]
O=C1CC(c2ccccc2O)Oc2ccc(O)cc21 (centres undefined) | 256 (≈ 999 µM) | 256 (≈ 999 µM) | 
O=C1CC(c2cccc(O)c2)Oc2ccccc21 (centres undefined) [3'-HYDROXYFLAVANONE] | 256 (≈ 1070 µM) | 256 (≈ 1070 µM) | 
O=C1c2c(O)cc(O)cc2O[C@H](c2ccc(O)c(O)c2)[C@H]1O [(+)-TAXIFOLIN] | 512 (≈ 1680 µM) | 128 (≈ 421 µM) | 
O=C1c2ccc(O)cc2OC(c2cc(O)c(O)c(O)c2)C1O (centres undefined) [DIHYDROBINETIN] | > 512 | 256 (≈ 841 µM) | Insoluble
O=C1C[C@@H](c2ccc(O)c(O)c2)Oc2cc(O)cc(O)c21 [ERIODICTYOL] | 512 (≈ 1780 µM) | 256 (≈ 888 µM) | 
O=C1C[C@@H](c2ccc(O)cc2)Oc2cc(O)cc(O)c21 [NARINGENIN] | 512 (≈ 1880 µM) | 256 (≈ 940 µM) | 
O=C1C[C@@H](c2ccccc2)Oc2cc(O)cc(O)c21 [PINOCEMBRIN] |  | > 512 | 

Source: ChEMBL document CHEMBL1151828, “Screening of flavonoids as candidate antibiotics against Enterococcus faecalis” (J Nat Prod, 2009)
